Values of other authors as cited in US20040092577A1, “Microparticle pharmaceutical compositions for intratumoral delivery” (priority 2002, published 2004).

What was measured:
[1] = gels, 0.6% loading; Zentner 2001
[2] = system: MDA-468 breast cancer cells; conditions: Lankmela et al.

Row | Structure (SMILES) | duration of delivery [1] [weeks] | rate of uptake α [2] [s⁻¹]
1 | CC(=O)O[C@H]1C(=O)[C@@]2(C)[C@H]([C@H](OC(=O)c3ccccc3)[C@]3(O)C[C@H](OC(=O)[C@H](O)[C@@H](NC(=O)c4ccccc4)c4ccccc4)C(C)=C1C3(C)C)[C@]1(OC(C)=O)CO[C@@H]1C[C@@H]2O [Paclitaxel] | 1 to 6 | 
2 | COc1cccc2c1C(=O)c1c(O)c3c(c(O)c1C2=O)C[C@@](O)(C(=O)CO)C[C@@H]3O[C@H]1C[C@H](N)[C@H](O)[C@H](C)O1 [doxorubicin] |  | 0.016
